Measured values reported in US10005767B2, “Compositions and methods for inhibition of the JAK pathway” (Rigel Pharmaceuticals, Inc., priority 2009, dated 2018).

System: human primary T-cells, IL-2 stimulated proliferation (JAK-1 and JAK-3 dependent; reported as JAK3 activity)
Test: Human primary T-cell proliferation stimulated by IL-2 (Example 3)
Type: cell-based
Conditions: tested under conditions described in Example 3 (IL-2 stimulated human primary T-cell proliferation); read-out: ability to inhibit JAK3 activity, IC50 range (Table V)
Procedure, shortened: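 Peripheral-blood human T-cells pre-activated via TCR/CD28, IL-2-starved overnight, then cultured 72 h at 37 °C with compound in Yssel's medium containing IL-2 (80 U/mL in cell suspension). Proliferation read as viable-cell ATP by CellTiter-Glo luminescence; reduction versus control taken as JAK pathway inhibition.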

How did the IC50 turn out when Cc1cnc(Nc2ccc(-c3ccncc3)c(C(F)(F)F)c2)nc1Nc1ccc2oc(=O)[nH]c2c1 [Compound I-330, 5-methyl-N4-(2-oxo-2,3-dihydro-1,3-benzoxazol-5-yl)-N2-[4-(pyridin-4-yl)-3-trifluoromethyl]phenyl-2,4-pyrimidinediamine] was run?
The IC50 was 5000 to 10000 nM.

For Cc1cnc(Nc2ccc(N3CCN(C)CC3)c(CO)c2)nc1Nc1ccc2oc(=O)[nH]c2c1 [Compound I-331, N2-[3-hydroxymethyl-4-(4-methylpiperazino)]phenyl-5-methyl-N4-(2-oxo-2,3-dihydro-1,3-benzoxazol-5-yl)-2,4-pyrimidinediamine], which IC50 is on record?
Its IC50 is less than 500 nM.

Cc1cnc(Nc2ccc(N3CCNCC3)cc2)nc1Nc1ccc2oc(=O)[nH]c2c1 [Compound I-332, 5-methyl-N4-(2-oxo-2,3-dihydro-1,3-benzoxazol-5-yl)-N2-(4-piperazino)phenyl-2,4-pyrimidinediamine] was tested. Which IC50 did it give?
The IC50 was less than 500 nM.

CCNC(=O)N1CCN(c2ccc(Nc3ncc(C)c(Nc4ccc5oc(=O)[nH]c5c4)n3)cc2)CC1 [Compound I-333, N2-[4-(4-ethylaminocarbonyl)piperazino]phenyl-5-methyl-N4-(2-oxo-2,3-dihydro-1,3-benzoxazol-5-yl)-2,4-pyrimidinediamine] was tested. Which IC50 did it give?
The IC50 was less than 500 nM.

For Cc1cnc(Nc2ccc(OC(C)(C)C#N)cc2)nc1Nc1ccc2oc(=O)[nH]c2c1 [Compound I-334, N2-[4-(1-cyano-1-methyl)ethoxy]phenyl-5-methyl-N4-(2-oxo-2,3-dihydro-1,3-benzoxazol-5-yl)-2,4-pyrimidinediamine], which IC50 is on record?
The IC50 was less than 500 nM.

Which IC50 does the source give for Cc1cnc(Nc2cccc(OC(C)(C)C(N)=O)c2)nc1Nc1ccc2oc(=O)[nH]c2c1 [Compound I-335, N2-[3-(1-aminocarbonyl-1-methyl)ethoxy]phenyl-5-methyl-N4-(2-oxo-2,3-dihydro-1,3-benzoxazol-5-yl)-2,4-pyrimidinediamine] here?
The IC50 was less than 500 nM.

How did the IC50 turn out when COC(=O)c1ccc(Nc2ncc(C)c(Nc3ccc4oc(=O)[nH]c4c3)n2)cc1OC [Compound I-336, N2-(3-methoxy-4-methoxycarbonyl)phenyl-5-methyl-N4-(2-oxo-2,3-dihydro-1,3-benzoxazol-5-yl)-2,4-pyrimidinediamine] was run?
Its IC50 is less than 500 nM.

For COc1cccc(Nc2ncc(C)c(Nc3ccc4oc(=O)[nH]c4c3)n2)c1 [Compound I-337, N2-(3-methoxy)phenyl-5-methyl-N4-(2-oxo-2,3-dihydro-1,3-benzoxazol-5-yl)-2,4-pyrimidinediamine], which IC50 is on record?
The IC50 was less than 500 nM.

With Cc1cnc(Nc2ccc(N3CCOCC3)cc2)nc1Nc1ccc2oc(=O)[nH]c2c1 [Compound I-338, 5-methyl-N2-(4-morpholino)phenyl-N4-(2-oxo-2,3-dihydro-1,3-benzoxazol-5-yl)-2,4-pyrimidinediamine] as the molecule, how does the IC50 read?
Its IC50 is less than 500 nM.

For Cc1cnc(Nc2ccc(N3CCSCC3)c(C#N)c2)nc1Nc1ccc2oc(=O)[nH]c2c1 [Compound I-339, N2-(3-cyano-4-thiomorpholino)phenyl-5-methyl-N4-(2-oxo-2,3-dihydro-1,3-benzoxazol-5-yl)-2,4-pyrimidinediamine], which IC50 is on record?
The IC50 was less than 500 nM.

Which IC50 does the source give for COc1cc(Nc2ncc(C)c(Nc3ccc4oc(=O)[nH]c4c3)n2)ccc1N1CCN(C)CC1 [Compound I-340, N2-[3-methoxy-4-(4-methylpiperazino)]phenyl-5-methyl-N4-(2-oxo-2,3-dihydro-1,3-benzoxazol-5-yl)-2,4-pyrimidinediamine] here?
Its IC50 is less than 500 nM.

Cc1cnc(Nc2ccc(N3CCN(C)CC3)c(C#N)c2)nc1Nc1ccc2oc(=O)[nH]c2c1 [Compound I-341, N2-[3-cyano-4-(4-methylpiperazino)]phenyl-5-methyl-N4-(2-oxo-2,3-dihydro-1,3-benzoxazol-5-yl)-2,4-pyrimidinediamine] was tested. Which IC50 did it give?
The IC50 was less than 500 nM.

With Cc1cnc(Nc2cccc(OC(C)(C)C#N)c2)nc1Nc1ccc2oc(=O)[nH]c2c1 [Compound I-342, N2-[3-(1-cyano-1-methyl)ethoxy]phenyl-5-methyl-N4-(2-oxo-2,3-dihydro-1,3-benzoxazol-5-yl)-2,4-pyrimidinediamine] as the molecule, how does the IC50 read?
Its IC50 is less than 500 nM.

With CC(=O)N1CCN(c2ccc(Nc3ncc(C)c(Nc4ccc5oc(=O)[nH]c5c4)n3)cc2)CC1 [Compound I-343, N2-[4-(4-acetyl)piperazino]phenyl-5-methyl-N4-(2-oxo-2,3-dihydro-1,3-benzoxazol-5-yl)-2,4-pyrimidinediamine] as the molecule, how does the IC50 read?
The IC50 was less than 500 nM.

How did the IC50 turn out when CCOC(=O)N1CCN(c2ccc(Nc3ncc(C)c(Nc4ccc5oc(=O)[nH]c5c4)n3)cc2)CC1 [Compound I-344, N2-[4-(4-ethoxycarbonyl)piperazino]phenyl-5-methyl-N4-(2-oxo-2,3-dihydro-1,3-benzoxazol-5-yl)-2,4-pyrimidinediamine] was run?
The IC50 was less than 500 nM.

Which IC50 does the source give for CC(=O)N1CCN(c2cccc(Nc3ncc(C)c(Nc4ccc5oc(=O)[nH]c5c4)n3)c2)CC1 [Compound I-345, N2-[3-(4-acetyl)piperazino]phenyl-5-methyl-N4-(2-oxo-2,3-dihydro-1,3-benzoxazol-5-yl)-2,4-pyrimidinediamine] here?
The IC50 was less than 500 nM.

With CCOC(=O)N1CCN(c2cccc(Nc3ncc(C)c(Nc4ccc5oc(=O)[nH]c5c4)n3)c2)CC1 [Compound I-346, N2-[3-(4-ethoxycarbonyl)piperazino]phenyl-5-methyl-N4-(2-oxo-2,3-dihydro-1,3-benzoxazol-5-yl)-2,4-pyrimidinediamine] as the molecule, how does the IC50 read?
The IC50 was less than 500 nM.

Cc1cnc(Nc2ccc(OC(F)F)c(F)c2)nc1Nc1ccc2oc(=O)[nH]c2c1 [Compound I-347, N2-(4-difluoromethoxy-3-fluoro)phenyl-5-methyl-N4-(2-oxo-2,3-dihydro-1,3-benzoxazol-5-yl)-2,4-pyrimidinediamine] was tested. Which IC50 did it give?
Its IC50 is less than 500 nM.

With Cc1cnc(Nc2cc(Cl)c(OC(F)F)c(Cl)c2)nc1Nc1ccc2oc(=O)[nH]c2c1 [Compound I-348, N2-(3,5-dichloro-4-difluoromethoxy)phenyl-5-methyl-N4-(2-oxo-2,3-dihydro-1,3-benzoxazol-5-yl)-2,4-pyrimidinediamine] as the molecule, how does the IC50 read?
Its IC50 is less than 500 nM.

With COc1ccc(Nc2ncc(C)c(Nc3ccc4oc(=O)[nH]c4c3)n2)cc1F [Compound I-350, N2-(3-fluoro-4-methoxy)phenyl-5-methyl-N4-(2-oxo-2,3-dihydro-1,3-benzoxazol-5-yl)-2,4-pyrimidinediamine] as the molecule, how does the IC50 read?
Its IC50 is less than 500 nM.

With COc1cc(Nc2ncc(C)c(Nc3ccc4oc(=O)[nH]c4c3)n2)ccc1C [Compound I-351, N2-(3-methoxy-4-methyl)phenyl-5-methyl-N4-(2-oxo-2,3-dihydro-1,3-benzoxazol-5-yl)-2,4-pyrimidinediamine] as the molecule, how does the IC50 read?
Its IC50 is less than 500 nM.

For COc1cc(F)cc(Nc2ncc(C)c(Nc3ccc4oc(=O)[nH]c4c3)n2)c1 [Compound I-352, N2-(3-fluoro-5-methoxy)phenyl-5-methyl-N4-(2-oxo-2,3-dihydro-1,3-benzoxazol-5-yl)-2,4-pyrimidinediamine], which IC50 is on record?
Its IC50 is less than 500 nM.

For Cc1cnc(Nc2cc(OC(F)F)cc(C(F)(F)F)c2)nc1Nc1ccc2oc(=O)[nH]c2c1 [Compound I-353, N2-(3-difluoromethoxy-5-trifluoromethyl)phenyl-5-methyl-N4-(2-oxo-2,3-dihydro-1,3-benzoxazol-5-yl)-2,4-pyrimidinediamine], which IC50 is on record?
Its IC50 is less than 500 nM.

Which IC50 does the source give for COc1cc(Nc2ncc(C)c(Nc3ccc4oc(=O)[nH]c4c3)n2)ccc1C(F)(F)F [Compound I-354, N2-(3-methoxy-4-trifluoromethyl)phenyl-5-methyl-N4-(2-oxo-2,3-dihydro-1,3-benzoxazol-5-yl)-2,4-pyrimidinediamine] here?
The IC50 was less than 500 nM.

How did the IC50 turn out when Cc1cnc(Nc2cc(C(C)(C)C)cc(C(C)(C)C)c2)nc1Nc1ccc2oc(=O)[nH]c2c1 [Compound I-355, N2-(3,5-di-tert-butyl)phenyl-5-methyl-N4-(2-oxo-2,3-dihydro-1,3-benzoxazol-5-yl)-2,4-pyrimidinediamine] was run?
Its IC50 is 500 to 5000 nM.

With COc1cc(Nc2ncc(C)c(Nc3ccc4oc(=O)n(COP(=O)(OC(C)(C)C)OC(C)(C)C)c4c3)n2)cc(C(F)(F)F)c1 [Compound I-356, N4-{3-[bis(1,1-dimethylethoxy)]phosphinyloxymethyl-2-oxo-2,3-dihydro-1,3-benzoxazol-5-yl}-N2-(3-methoxy-5-trifluoromethyl)phenyl-5-methyl-2,4-pyrimidinediamine] as the molecule, how does the IC50 read?
Its IC50 is 5000 to 10000 nM.

Which IC50 does the source give for COc1cc(Nc2ncc(C)c(Nc3ccc4oc(=O)n(COP(=O)(O)O)c4c3)n2)cc(C(F)(F)F)c1 [Compound I-357, N2-(3-methoxy-5-trifluoromethyl)phenyl-5-methyl-N4-[3-(phosphonooxy)methyl-2-oxo-2,3-dihydro-1,3-benzoxazol-5-yl]-2,4-pyrimidinediamine] here?
Its IC50 is 500 to 5000 nM.

Cc1cnc(Nc2cc(F)cc(F)c2)nc1Nc1ccc2oc(=O)[nH]c2c1 [Compound I-359, N2-(3,5-difluoro)phenyl-5-methyl-N4-(2-oxo-2,3-dihydro-1,3-benzoxazol-5-yl)-2,4-pyrimidinediamine] was tested. Which IC50 did it give?
The IC50 was less than 500 nM.

How did the IC50 turn out when Cc1cnc(Nc2cc(F)cc(C(F)(F)F)c2)nc1Nc1ccc2oc(=O)[nH]c2c1 [Compound I-360, N2-(3-fluoro-5-trifluoromethyl)phenyl-5-methyl-N4-(2-oxo-2,3-dihydro-1,3-benzoxazol-5-yl)-2,4-pyrimidinediamine] was run?
Its IC50 is less than 500 nM.

With Cc1cnc(Nc2ccc(F)c(C(F)(F)F)c2)nc1Nc1ccc2oc(=O)[nH]c2c1 [Compound I-361, N2-(4-fluoro-3-trifluoromethyl)phenyl-5-methyl-N4-(2-oxo-2,3-dihydro-1,3-benzoxazol-5-yl)-2,4-pyrimidinediamine] as the molecule, how does the IC50 read?
Its IC50 is less than 500 nM.

For Cc1cc(Nc2ncc(C)c(Nc3ccc4oc(=O)[nH]c4c3)n2)ccc1F [Compound I-362, N2-(4-fluoro-3-methyl)phenyl-5-methyl-N4-(2-oxo-2,3-dihydro-1,3-benzoxazol-5-yl)-2,4-pyrimidinediamine], which IC50 is on record?
The IC50 was less than 500 nM.

Cc1ccc(Nc2ncc(C)c(Nc3ccc4oc(=O)[nH]c4c3)n2)cc1F [Compound I-363, N2-(3-fluoro-4-methyl)phenyl-5-methyl-N4-(2-oxo-2,3-dihydro-1,3-benzoxazol-5-yl)-2,4-pyrimidinediamine] was tested. Which IC50 did it give?
Its IC50 is less than 500 nM.
